Legend:
GSK-3β [1] = target: T1, GSK-3β (Homo sapiens, UniProt P49841); assay: GSK-3β kinase assay in presence of reducing agents; conditions: inhibitor 10 μM; for effect of reducing agents on potency: 2 mM DTT, GSH or TCEP, 84 min
GSK-3β [2] = target: T1, GSK-3β; assay: PhosphoSens real-time kinase assay, wild type GSK-3β; type: biochemical; conditions: for increase in potency with preincubation: 3-hour preincubation vs no preincubation
GSK-3β [3] = target: T1, GSK-3β; assay: Jump dilution assay; type: biochemical; conditions: 3-hour pre-incubation with 50 nM GSK-3β, 100-fold dilution; 2 mM ATP
[4] = Reaction of COB-187 with ethanethiol and tributylphosphine in THF; type: physicochemical; conditions: room temperature to reflux, HPLC and 1H-NMR
GSK-3β C199A mutant = GSK-3β C199A mutant (Homo sapiens, UniProt P49841, C199A); assay: PhosphoSens kinase assay, GSK-3β C199A mutant; type: biochemical; conditions: C199A vs wild type GSK-3β
KDR (VEGFR2) = KDR (VEGFR2) (Homo sapiens, UniProt P35968); assay: Kinase panel screen, Z'-LYTE; type: biochemical; conditions: read-out: Inhibition KDR (VEGFR2)
MAPKAPK5 (PRAK) = target: T2, MAPKAPK5 (PRAK) (Homo sapiens, UniProt Q8IW41); assay: Kinase panel screen, Z'-LYTE; type: biochemical; conditions: read-out: Inhibition MAPKAPK5 (PRAK), 2 μM COB-187, ATP Km, ±SD n=2
T2 sequence (Q8IW41 1-473): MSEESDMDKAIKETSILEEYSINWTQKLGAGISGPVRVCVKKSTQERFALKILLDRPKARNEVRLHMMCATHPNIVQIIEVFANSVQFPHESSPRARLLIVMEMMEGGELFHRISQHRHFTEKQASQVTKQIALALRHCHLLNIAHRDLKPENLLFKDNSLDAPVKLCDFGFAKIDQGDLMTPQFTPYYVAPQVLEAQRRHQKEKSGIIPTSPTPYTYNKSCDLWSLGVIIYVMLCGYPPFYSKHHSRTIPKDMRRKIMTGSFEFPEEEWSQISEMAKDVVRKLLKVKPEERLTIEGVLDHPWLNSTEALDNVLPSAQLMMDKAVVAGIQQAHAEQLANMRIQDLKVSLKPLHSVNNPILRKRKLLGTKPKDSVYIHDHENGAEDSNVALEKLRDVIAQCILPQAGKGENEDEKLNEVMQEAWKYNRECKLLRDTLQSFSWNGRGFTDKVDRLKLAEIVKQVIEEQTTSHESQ

T1 sequence (P49841 whole entry): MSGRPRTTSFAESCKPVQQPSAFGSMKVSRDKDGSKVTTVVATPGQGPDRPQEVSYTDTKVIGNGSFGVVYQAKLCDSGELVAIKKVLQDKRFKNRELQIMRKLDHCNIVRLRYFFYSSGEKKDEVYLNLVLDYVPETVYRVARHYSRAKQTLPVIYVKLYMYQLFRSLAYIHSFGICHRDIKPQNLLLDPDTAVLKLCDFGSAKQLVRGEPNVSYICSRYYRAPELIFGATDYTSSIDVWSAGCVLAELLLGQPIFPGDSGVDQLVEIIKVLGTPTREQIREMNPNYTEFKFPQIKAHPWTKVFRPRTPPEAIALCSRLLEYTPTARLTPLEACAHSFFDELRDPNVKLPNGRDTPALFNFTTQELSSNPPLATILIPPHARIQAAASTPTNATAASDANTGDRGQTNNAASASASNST
GSK-3β C199A mutant, sequence (P49841 whole entry C199A): as the sequence (P49841 whole entry) above, with C199A counted along it
KDR (VEGFR2), sequence (P35968 20-1356): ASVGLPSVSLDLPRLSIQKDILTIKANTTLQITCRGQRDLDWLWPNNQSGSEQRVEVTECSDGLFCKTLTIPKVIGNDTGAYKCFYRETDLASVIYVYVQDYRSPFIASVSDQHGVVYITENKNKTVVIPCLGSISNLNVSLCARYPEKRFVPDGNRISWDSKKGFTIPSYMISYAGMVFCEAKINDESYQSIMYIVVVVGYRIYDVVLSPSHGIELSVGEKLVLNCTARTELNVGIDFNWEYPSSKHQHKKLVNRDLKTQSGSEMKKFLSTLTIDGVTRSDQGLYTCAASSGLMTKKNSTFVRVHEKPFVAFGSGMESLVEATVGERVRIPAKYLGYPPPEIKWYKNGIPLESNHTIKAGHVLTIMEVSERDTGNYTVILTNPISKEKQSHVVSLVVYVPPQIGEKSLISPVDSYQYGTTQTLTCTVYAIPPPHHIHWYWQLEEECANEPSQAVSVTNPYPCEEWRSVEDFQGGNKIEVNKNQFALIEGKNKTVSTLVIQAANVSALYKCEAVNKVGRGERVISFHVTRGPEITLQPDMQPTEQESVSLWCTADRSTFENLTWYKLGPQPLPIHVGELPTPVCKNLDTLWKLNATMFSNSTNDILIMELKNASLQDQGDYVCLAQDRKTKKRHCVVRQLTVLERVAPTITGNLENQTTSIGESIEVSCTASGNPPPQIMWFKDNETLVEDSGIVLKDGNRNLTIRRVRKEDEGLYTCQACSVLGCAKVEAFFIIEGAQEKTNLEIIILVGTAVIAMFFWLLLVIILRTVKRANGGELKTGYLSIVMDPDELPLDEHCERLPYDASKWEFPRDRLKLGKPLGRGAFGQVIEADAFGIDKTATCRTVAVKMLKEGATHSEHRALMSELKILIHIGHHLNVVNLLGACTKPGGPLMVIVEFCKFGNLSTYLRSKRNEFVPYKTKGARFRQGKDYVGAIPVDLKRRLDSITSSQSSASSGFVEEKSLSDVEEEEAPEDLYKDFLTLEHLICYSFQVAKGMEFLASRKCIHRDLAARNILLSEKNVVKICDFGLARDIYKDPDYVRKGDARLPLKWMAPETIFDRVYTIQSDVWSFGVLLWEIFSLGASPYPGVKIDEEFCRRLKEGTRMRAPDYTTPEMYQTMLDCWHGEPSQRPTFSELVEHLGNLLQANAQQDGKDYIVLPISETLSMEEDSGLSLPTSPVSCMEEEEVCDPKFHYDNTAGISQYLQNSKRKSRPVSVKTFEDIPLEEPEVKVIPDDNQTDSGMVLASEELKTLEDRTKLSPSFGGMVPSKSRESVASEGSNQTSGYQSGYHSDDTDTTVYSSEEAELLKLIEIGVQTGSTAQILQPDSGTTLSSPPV

Row | SMILES | effect of DTT or GSH on potency (GSK-3β [1]; 2 mM DTT or GSH) | effect of TCEP on potency (GSK-3β [1]; 2 mM TCEP) | increase in potency with preincubation (GSK-3β [2]) | recovery of GSK-3β activity upon jump dilution (GSK-3β [3]) | reaction with ethanethiol and tributylphosphine [4] | effect of reducing agents on potency (GSK-3β [1]) | decrease in potency for the mutant versus wild type (GSK-3β C199A mutant) [fold] | inhibition at 2 µM (KDR (VEGFR2)) [%] | inhibition at 2 µM (MAPKAPK5 (PRAK)) [%] | average k4 from fit of kobs vs concentration to Eq. 8 (induced-fit) (GSK-3β [2]; average of five replicates, ± SD)
1 | COc1ccc(CNC(=O)Nc2ncc([N+](=O)[O-])s2)cc1 [AR-A014418] | not significantly altered | significant but modest reduction |  |  |  |  |  |  |  | 
2 | O=C1Cc2c([nH]c3ccc([N+](=O)[O-])cc23)-c2ccccc2N1 [Alsterpaullone] |  |  | no significant increase | recovered most of its activity upon dilution |  |  |  |  |  | 
3 | OC1(c2ccccc2)CSC(=S)N1Cc1ccncc1 (centres unmarked) [COB-187, 4-hydroxy-4-phenyl-3-(pyridin-4-ylmethyl)thiazolidine-2-thione] |  |  | < 4 fold |  | no evidence of any reaction | significantly diminished | > 300 | 8 ± 8.2 | ~64 | 2.9 × 10^−4 (±4.8 × 10^−4 SD) 1/min
4 | COc1cc(O)c2c(c1)[C@H]1O[C@@H]1C[C@H](O)[C@H](O)C(=O)/C=C\C[C@H](C)OC2=O [Hypothemycin] |  |  | ~ 17 fold | did not recover activity upon jump dilution |  | significantly diminished |  |  |  | 

Source: article PMC8972088 (Bioorganic & medicinal chemistry, 2021)
